According to PMC9326368, “A Novel PARP Inhibitor YHP-836 For the Treatment of BRCA-Deficiency Cancers” (Frontiers in Pharmacology, 2022):

Legend:
PARP2 = PARP2 (Homo sapiens, UniProt Q9UGN5); experiment: PARP2 enzymatic assay on histone-coated plate with NAD+, PAR product detection; type: biochemical
PARP1 = PARP1 (Homo sapiens, UniProt P09874); experiment: PARP1 enzymatic assay on histone-coated plate with NAD+, PAR product detection; type: biochemical
Chain of PARP1 (P09874 2-1014): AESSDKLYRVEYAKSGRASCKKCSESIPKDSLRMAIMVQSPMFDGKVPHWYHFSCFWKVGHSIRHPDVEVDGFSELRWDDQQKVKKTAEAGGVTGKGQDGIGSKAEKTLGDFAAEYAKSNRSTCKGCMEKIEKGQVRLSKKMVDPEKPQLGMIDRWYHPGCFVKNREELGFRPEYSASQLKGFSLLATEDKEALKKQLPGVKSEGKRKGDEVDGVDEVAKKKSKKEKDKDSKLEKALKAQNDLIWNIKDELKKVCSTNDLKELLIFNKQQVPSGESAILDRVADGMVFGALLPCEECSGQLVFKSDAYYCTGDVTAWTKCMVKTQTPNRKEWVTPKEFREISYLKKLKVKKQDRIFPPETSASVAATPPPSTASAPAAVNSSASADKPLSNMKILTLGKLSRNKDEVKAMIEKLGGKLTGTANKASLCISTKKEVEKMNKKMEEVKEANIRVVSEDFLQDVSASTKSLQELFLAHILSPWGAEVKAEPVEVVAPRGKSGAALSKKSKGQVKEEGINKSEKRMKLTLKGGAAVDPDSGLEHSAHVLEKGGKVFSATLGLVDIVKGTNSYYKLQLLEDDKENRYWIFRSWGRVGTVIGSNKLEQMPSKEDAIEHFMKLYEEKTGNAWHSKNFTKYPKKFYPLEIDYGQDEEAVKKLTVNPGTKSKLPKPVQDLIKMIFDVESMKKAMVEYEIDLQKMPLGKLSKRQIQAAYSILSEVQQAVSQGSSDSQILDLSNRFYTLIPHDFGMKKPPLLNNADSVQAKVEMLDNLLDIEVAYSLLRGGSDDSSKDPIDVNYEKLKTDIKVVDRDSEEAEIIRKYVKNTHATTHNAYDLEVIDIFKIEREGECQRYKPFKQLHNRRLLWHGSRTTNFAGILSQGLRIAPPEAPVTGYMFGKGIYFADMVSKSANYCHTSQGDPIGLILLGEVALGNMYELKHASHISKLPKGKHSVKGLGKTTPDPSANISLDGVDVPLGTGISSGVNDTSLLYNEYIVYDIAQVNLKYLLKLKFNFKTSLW

Chain of PARP2 (Q9UGN5 whole entry): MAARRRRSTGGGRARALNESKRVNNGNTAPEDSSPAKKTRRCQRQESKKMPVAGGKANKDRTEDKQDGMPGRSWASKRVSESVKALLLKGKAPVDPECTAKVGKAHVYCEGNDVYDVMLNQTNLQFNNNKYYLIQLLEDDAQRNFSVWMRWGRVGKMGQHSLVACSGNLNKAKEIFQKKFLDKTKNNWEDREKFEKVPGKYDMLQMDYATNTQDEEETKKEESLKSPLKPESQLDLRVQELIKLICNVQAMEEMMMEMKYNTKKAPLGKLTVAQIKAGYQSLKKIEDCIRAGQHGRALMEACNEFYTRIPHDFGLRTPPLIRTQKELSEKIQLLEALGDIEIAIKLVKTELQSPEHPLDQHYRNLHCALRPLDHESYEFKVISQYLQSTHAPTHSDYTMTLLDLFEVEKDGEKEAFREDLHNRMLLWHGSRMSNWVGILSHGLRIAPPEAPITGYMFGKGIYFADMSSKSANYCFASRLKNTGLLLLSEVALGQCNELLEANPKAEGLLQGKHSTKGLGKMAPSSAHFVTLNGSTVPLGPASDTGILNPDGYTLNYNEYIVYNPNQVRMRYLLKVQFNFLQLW

- IC50 (PARP2): 3.62 nM
- IC50 (PARP1): 6.33 nM
SMILES: O=C(c1cc(Cn2c(=O)[nH]c(=O)c3ccccc32)ccc1F)N1CCN(CC(F)(F)F)CC1 [YHP-836]
